According to US9586958B2, “Prodrug derivatives of substituted triazolopyridines” (BAYER PHARMA AKTIENGESELLSCHAFT, priority 2013, dated 2017):

Key:
[1] = In vitro stability in rat plasma (HPLC detection); assay type: in vitro ADME; details: 37° C.
Protocol: 1 mg of test compound is dissolved in 1.25 ml dimethylsulfoxide. Then 1.25 ml water are added. 0.5 ml of this sample solution are mixed with 0.5 ml heparinized and 37° C. warm plasma (wistar rat plasma or human plasma). A first sample (10 μl) is immediately taken for HPLC analysis. In the period up to 4 h after the start of incubation further 10 μl aliquots are taken after 30, 60, 90, 120 and 240 minutes and the amount of the test compound is determined.
Agilent 1100 with DAD (G1315A), binary pump (G1312A), autosampler (G1329A), column oven (G1316A), thermostat (G1330B); column: Kromasil 100 C18, 250 mm×4 mm, 5 μm; column temperature: 45° C.; eluent A: water+5 ml of perchloric acid/liter, eluent B: acetonitrile.

[2] = Stability in buffer at pH 7.4 (HPLC); assay type: physicochemical; details: buffer pH 7.4, 37° C.
Protocol: 0.3 mg of the test compound are solved in 0.1 ml dimethylsulfoxide and 0.4 ml acetonitrile. For complete dissolution the HPLC vial with the sample solution is sonified for about 20 seconds. Then 1.0 ml of the buffer solution is added, and the sample is again treated in the ultrasonic bath.
90 g of sodium chloride, 13.61 g of potassium dihydrogen phosphate and 83.35 g of 1 M sodium hydroxide solution are made up to 1 liter with Millipore water and then diluted 1:10.
10 μl portions of the sample solution are analysed by HPLC to determine the amount of the test compound over a period of 24 hours at 37° C. The peak areas in percentage are used for quantification.
Agilent 1100 with DAD (G1315B), binary pump (G1312A), autosampler (G1329A), column oven (G1316A), thermostat (G1330B); column: Kromasil 100 C18, 250 mm×4 mm, 5 μm; column temperature: 37° C.; eluent A: water+5 ml of perchloric acid/liter, eluent B: acetonitrile.
The ratio of the peak areas (F) at different time points in relation to the peak areas at the starting time are shown in Table 2 for representative examples: […]

[3] = Metabolic stability in vitro, dog liver microsomes (calculation of Fmax); assay type: in vitro ADME; details: comparison table with comparative examples
Protocol: (§1) The metabolic stability of test compounds in vitro was determined by incubating them at 1 μM with a suspension liver microsomes in 100 mM phosphate buffer, pH7.4 (NaH2PO4×H2O+Na2HPO4×2H2O) at a protein concentration of 0.5 mg/mL and at 37° C. The reaction was activated by adding a co-factor mix containing 1.2 mg NADP, 3 IU glucose-6-phosphate dehydrogenase, 14.6 mg glucose-6-phosphate and 4.9 mg MgCl2 in phosphate buffer, pH 7.4. Organic solvent in the incubations was limited to <0.2% dimethylsulfoxide (DMSO) and <1% methanol. During incubation, the microsomal suspensions were continuously shaken and aliquots were taken at 2, 8, 16, 30, 45 and 60 min, to which equal volumes of cold methanol were immediately added. Samples were frozen at −20° C. over night, subsequently centrifuged for 15 minutes at 3000 rpm and the supernatant was analyzed with an Agilent 1200 HPLC-system with LCMS/MS detection.
(§2) The half-life of a test compound was determined from the concentration-time plot. From the half-life the intrinsic clearances were calculated. Together with the additional parameters liver blood flow, specific liver weight and microsomal protein content the hepatic in vivo blood clearance (CL) and the maximal oral bioavailability (Fmax) were calculated for the different species. The following parameter values were used: Liver blood flow—1.3 L/h/kg (human), 2.1 L/h/kg (dog), 4.2 L/h/kg (rat); specific liver weight—21 g/kg (human), 39 g/kg (dog), 32 g/kg (rat); microsomal protein content—40 mg/g.
(§3) With the described assay only phase-I metabolism of microsomes is reflected, e.g. typically oxidoreductive reactions by cytochrome P450 enzymes and flavin mono-oxygenases (FMO) and hydrolytic reactions by esterases (esters and amides).

[4] = Metabolic stability in vitro, rat liver microsomes (calculation of Fmax); assay type: in vitro ADME; details: comparison table with comparative examples
Protocol: as §1, §2, §3

[5] = test system: HeLa human cervical tumor cells; assay: Proliferation assay, HeLa cells (crystal violet); assay type: cell-based; details: HeLa, comparison table with comparative examples, read-out: Inhibition of cell proli-feration, cell line: HeLa, IC50
Protocol: Cultivated tumor cells (MCF7, hormone dependent human mammary carcinoma cells, ATCC HTB22; NCI-H460, human non-small cell lung carcinoma cells, ATCC HTB-177; DU 145, hormone-independent human prostate carcinoma cells, ATCC HTB-81; HeLa-MaTu, human cervical carcinoma cells, EPO-GmbH, Berlin; HeLa-MaTu-ADR, multidrug-resistant human cervical carcinoma cells, EPO-GmbH, Berlin; HeLa human cervical tumor cells, ATCC CCL-2; B16F10 mouse melanoma cells, ATCC CRL-6475) were plated at a density of 5000 cells/well (MCF7, DU145, HeLa-MaTu-ADR), 3000 cells/well (NCI-H460, HeLa-MaTu, HeLa), or 1000 cells/well (B16F10) in a 96-well multititer plate in 200 μl of their respective growth medium supplemented 10% fetal calf serum. After 24 hours, the cells of one plate (zero-point plate) were stained with crystal violet (see below), while the medium of the other plates was replaced by fresh culture medium (200 μl), to which the test substances were added in various concentrations (0 μM, as well as in the range of 0.01-30 μM; the final concentration of the solvent dimethyl sulfoxide was 0.5%). The cells were incubated for 4 days in the presence of test substances. Cell proliferation was determined by staining the cells with crystal violet: the cells were fixed by adding 20 μl/measuring point of an 11% glutaric aldehyde solution for 15 minutes at room temperature. After three washing cycles of the fixed cells with water, the plates were dried at room temperature. The cells were stained by adding 100 μl/measuring point of a 0.1% crystal violet solution (pH 3.0). After three washing cycles of the stained cells with water, the plates were dried at room temperature. The dye was dissolved by adding 100 μl/measuring point of a 10% acetic acid solution. The extinction was determined by photometry at a wavelength of 595 nm. The change of cell number, in percent, was calculated by normalization of the measured values to the extinction values of the zero-point plate (=0%) and the extinction of the untreated (0 μm) cells (=100%). The IC50 values were determined by means of a 4 parameter fit.

human kinase Mps-1 = target: T1, human kinase Mps-1 (Homo sapiens, UniProt P33981); assay: Mps-1 kinase assay (TR-FRET) with 10 μM ATP; assay type: biochemical; details: Mps-1 Inhibition, IC50 (Assay with 10 μM ATP), comparison table with comparative examples
T1 construct: N-terminally GST-tagged human full length recombinant Mps-1 kinase; GST (N); purchased Invitrogen, Karslruhe, Germany PV4071
T1 sequence (P33981 1-857): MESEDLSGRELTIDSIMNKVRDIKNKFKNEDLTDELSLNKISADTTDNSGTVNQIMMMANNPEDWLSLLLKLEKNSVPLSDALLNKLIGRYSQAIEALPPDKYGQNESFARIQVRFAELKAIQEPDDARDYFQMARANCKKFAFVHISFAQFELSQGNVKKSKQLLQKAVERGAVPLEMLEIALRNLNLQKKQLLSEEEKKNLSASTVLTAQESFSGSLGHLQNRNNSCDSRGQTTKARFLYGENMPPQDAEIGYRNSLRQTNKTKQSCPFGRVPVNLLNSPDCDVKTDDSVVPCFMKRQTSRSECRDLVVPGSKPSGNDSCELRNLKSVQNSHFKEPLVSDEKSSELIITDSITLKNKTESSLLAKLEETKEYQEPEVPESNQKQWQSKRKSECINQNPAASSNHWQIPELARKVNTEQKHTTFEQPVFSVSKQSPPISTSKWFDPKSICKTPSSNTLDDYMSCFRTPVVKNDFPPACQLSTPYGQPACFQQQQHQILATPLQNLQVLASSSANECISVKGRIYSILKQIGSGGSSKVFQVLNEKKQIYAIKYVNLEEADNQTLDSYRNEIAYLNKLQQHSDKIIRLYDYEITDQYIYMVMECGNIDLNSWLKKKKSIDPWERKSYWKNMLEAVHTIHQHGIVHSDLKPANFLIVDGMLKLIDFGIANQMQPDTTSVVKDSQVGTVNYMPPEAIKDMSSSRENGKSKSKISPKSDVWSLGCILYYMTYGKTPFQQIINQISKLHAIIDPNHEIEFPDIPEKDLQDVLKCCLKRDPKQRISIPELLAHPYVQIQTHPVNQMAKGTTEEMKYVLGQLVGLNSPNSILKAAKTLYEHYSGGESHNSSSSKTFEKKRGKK

C[C@@H](C(=O)Nc1ccc(-c2ccc3nc(N(C(=O)OCOC(=O)[C@@H](N)C(C)(C)C)c4ccc(C(=O)N5CC(F)C5)cc4OCC(F)(F)F)nn3c2)cc1)c1ccc(F)cc1.Cl [Example 6.3, [({4-[(3-fluoroazetidin-1-yl)carbonyl]-2-(2,2,2-trifluoroethoxy)phenyl}[6-(4-{[(2R)-2-(4-fluorophenyl)propanoyl]amino}phenyl)[1,2,4]triazolo[1,5-α]pyridin-2-yl]carbamoyl)oxy]methyl 3-methyl-L-valinate hydrochloride]
% Test Compound after 4 h [F(t = 24 h) × 100/F(t = 0 h)] [1]: 0.0%
% Test Compound after 24 h [F(t = 24 h) × 100/F(t = 0 h)] [2]: 0.0%

CNCCOC(=O)N(c1nc2ccc(-c3ccc(NC(=O)[C@H](C)c4ccc(F)cc4)cc3)cn2n1)c1ccc(S(C)(=O)=O)cc1OC.Cl [Example 7.1, 2-(methylamino)ethyl [6-(4-{[(2R)-2-(4-fluorophenyl)propanoyl]amino}phenyl)[1,2,4]triazolo[1,5-α]pyridin-2-yl][2-methoxy-4-(methylsulfonyl)phenyl]carbamate hydrochloride]
% Test Compound after 4 h [F(t = 24 h) × 100/F(t = 0 h)] [1]: 80%
% Test Compound after 24 h [F(t = 24 h) × 100/F(t = 0 h)] [2]: 48%

N#Cc1c(F)cccc1Nc1nc2ccc(-c3ccc(NC(=O)Cc4ccc(F)cc4)cc3)cn2n1 [reference compound]
Dog liver microsomes; Fmax [%] [3]: 15%

COc1ccccc1Nc1nc2ccc(-c3ccc(NC(=O)Cc4ccccc4)cc3)cn2n1 [reference compound]
Rat liver microsomes; Fmax [%] [4]: 40%

N#Cc1ccccc1Nc1nc2ccc(-c3ccc(NC(=O)Cc4ccc(F)cc4)cc3)cn2n1 [reference compound]
Rat liver microsomes; Fmax [%] [4]: 40%

COC(C(=O)Nc1ccc(-c2ccc3nc(Nc4ccccc4C#N)nn3c2)cc1)c1ccccc1 (centres unmarked) [reference compound]
Rat liver microsomes; Fmax [%] [4]: 19%

N#Cc1ccccc1Nc1nc2ccc(-c3ccc(NC(=O)C(F)(F)c4ccccc4)cc3)cn2n1 [reference compound]
Rat liver microsomes; Fmax [%] [4]: 27%

N#Cc1ccccc1Nc1nc2ccc(-c3ccc(NC(=O)C(F)c4ccccc4)cc3)cn2n1 (centres unmarked) [reference compound]
Rat liver microsomes; Fmax [%] [4]: 26%

COc1cc(C(=O)N2CCOCC2)ccc1Nc1nc2ccc(-c3ccc(NC(=O)Cc4ccc(F)cc4)cc3)cn2n1 [reference compound]
Rat liver microsomes; Fmax [%] [4]: 48%

CCOc1cc(S(C)(=O)=O)ccc1Nc1nc2ccc(-c3ccc(C(=O)NCc4ccc(F)cc4)c(C)c3)cn2n1 [reference compound]
Dog liver microsomes; Fmax [%] [3]: 12%

COc1cc(C(=O)NCC(F)(F)F)ccc1Nc1nc2ccc(-c3ccc(NC(=O)Cc4ccc(F)cc4)cc3)cn2n1 [reference compound]
Dog liver microsomes; Fmax [%] [3]: 40%

COc1cc(N2CCOC2=O)ccc1Nc1nc2ccc(-c3ccc(NC(=O)Cc4ccc(F)cc4)cc3)cn2n1 [reference compound]
Dog liver microsomes; Fmax [%] [3]: 17%

COc1cc(S(C)(=O)=O)ccc1Nc1nc2ccc(-c3ccc(NC(=O)Cc4ccc(F)cc4)cc3)cn2n1 [reference compound]
Dog liver microsomes; Fmax [%] [3]: 10%

CS(=O)(=O)c1ccc(Nc2nc3ccc(-c4ccc(NC(=O)Cc5ccc(F)cc5)cc4)cn3n2)c(OCC(F)(F)F)c1 [reference compound]
Dog liver microsomes; Fmax [%] [3]: 25%

N#Cc1ccccc1Nc1nc2cnc(-c3ccc(NC(=O)Cc4ccc(F)cc4)cc3)cn2n1 [reference compound]
IC50 [5]: 1500 nM

N#Cc1ccccc1Nc1nc2ccc(-c3ccc(NC(=O)C4(c5ccccc5)CC4)cc3)cn2n1 [reference compound]
IC50 (human kinase Mps-1): 11 nM
IC50 [5]: 1400 nM

NC(C(=O)Nc1ccc(-c2ccc3nc(Nc4ccccc4C(F)(F)F)nn3c2)cc1)c1ccccc1 (centres unmarked) [reference compound]
IC50 (human kinase Mps-1): 13 nM
